The text below walks through data of patent US9428510B2, “Derivatives of azaindazole or diazaindazole type for treating a cancer overexpressing Trk” (PIERRE FABRE MEDICAMENT, priority 2012, dated 2016).

The subject of data set [1] is KM-12 colon cancer cells. Nature of the data set: Antiproliferative activity against human colon cancer cells (KM-12), ATPlite. As to conditions: KM12, KM-12 cells, 72 hours, read-out: Cell proliferation inhibition (KM-12) IC50. The format is cell-based. The protocol:
The antiproliferative activities of the compounds according to the invention were measured by the ATPlite technique (Perkin Elmer).
Adherent human colon cancer cells (KM-12 colon cancer cells are TrkA-dependent) are inoculated in 96-well plates (3500 cells/well) on day 0, at a concentration compatible with logarithmic growth for the 72 hours required for the evaluation of the compounds. All of the cells are treated on day 1 and then placed in an incubator at 37° C. under an atmosphere of 5% CO2. Cell viability is evaluated on day 4 by assaying released ATP, which is characteristic of viable cells. IC50s are determined by nonlinear regression on the basis of a sigmoidal dose/response relationship model, wherein the Hill coefficient is left variable, carried out on the GraphPad software package according to the algorithm provided.

The test system of data set [2] is KM-12 experimental tumor model. Nature of the data set: In vivo antitumor activity against the KM-12 experimental tumor model. The following applies: oral route, (q1d6)x2 weeks schedule. From the text:
This activity is noticeable since colon cancer is overall poor responsive to chemotherapy.

Data set [3] addresses T1, TrkA (Homo sapiens, UniProt P04629).
T1 construct: purchased Millipore or Kinome Scan (DiscoverX)
Nature of the data set: Test for measuring inhibition of TrkA kinase (Millipore or Kinome Scan, manufacturer's protocols). The format is biochemical. The following applies: 10 nM compound. The text has this:
(§1) These kinases are produced by Millipore or Kinome Scan (DiscoverX) and are screened according to the manufacturer's protocols.

Data set [4] has as its target T2, TrkB (Homo sapiens, UniProt Q16620).
T2 construct: purchased Millipore or Kinome Scan (DiscoverX)
Nature of the data set: Test for measuring inhibition of TrkB kinase (Millipore or Kinome Scan, manufacturer's protocols). The format is biochemical. As to conditions: 10 nM compound.
Text: as §1

The target in data set [5] is T3, TrkB (or NTRK2) (Homo sapiens, UniProt Q16620).
T3 construct: using the soluble intracellular segment of theses receptors, containing the kinase activity; purchased Invitrogen
Nature of the data set: In vitro kinase glo plus-based kinase assay, TrkB. The following applies: N=36, 40 μM ATP. The format is biochemical. As for the experimental part:
An in vitro kinase glo plus-based kinase assay (Promega) was developed in a 96 wells assay plate format to assess the inhibiting properties of compounds on tropomyosin related kinases (Trk) receptors, using the soluble intracellular segment of theses receptors, containing the kinase activity (TrkA (or NTRK1; 400 ng/well; […] Invitrogen)). […] Plates were removed from incubator, and 50 μl of kinase-glo plus was added to each well, followed by a 10 minute incubation at room temperature. The luciferase-induced luminescence, which is proportional to the ATP remaining in the well, was measured on a luminometer. Controls on each plates included wells with the kinase alone (maximal ATP consumption, or 0% inhibition), wells without the kinase (maximal ATP signal or 100% inhibition), and wells with 20 μM staurosporine (positive control of inhibition). […] N=42; […]
On the technique in general: Kinase-Glo measures the ATP left after a reaction by luminescence.

T3 sequence (Q16620 455-822 limits assumed): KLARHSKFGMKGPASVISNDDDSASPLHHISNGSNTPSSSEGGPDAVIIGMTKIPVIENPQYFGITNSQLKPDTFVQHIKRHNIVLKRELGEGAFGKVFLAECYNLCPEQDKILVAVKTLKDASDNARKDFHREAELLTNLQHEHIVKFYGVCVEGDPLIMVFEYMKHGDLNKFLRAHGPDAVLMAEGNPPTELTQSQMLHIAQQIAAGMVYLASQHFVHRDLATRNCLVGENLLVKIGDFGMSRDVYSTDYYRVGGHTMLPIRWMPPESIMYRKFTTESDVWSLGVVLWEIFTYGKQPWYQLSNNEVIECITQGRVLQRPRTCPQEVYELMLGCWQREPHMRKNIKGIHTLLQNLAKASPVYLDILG
T2 sequence (Q16620 32-822): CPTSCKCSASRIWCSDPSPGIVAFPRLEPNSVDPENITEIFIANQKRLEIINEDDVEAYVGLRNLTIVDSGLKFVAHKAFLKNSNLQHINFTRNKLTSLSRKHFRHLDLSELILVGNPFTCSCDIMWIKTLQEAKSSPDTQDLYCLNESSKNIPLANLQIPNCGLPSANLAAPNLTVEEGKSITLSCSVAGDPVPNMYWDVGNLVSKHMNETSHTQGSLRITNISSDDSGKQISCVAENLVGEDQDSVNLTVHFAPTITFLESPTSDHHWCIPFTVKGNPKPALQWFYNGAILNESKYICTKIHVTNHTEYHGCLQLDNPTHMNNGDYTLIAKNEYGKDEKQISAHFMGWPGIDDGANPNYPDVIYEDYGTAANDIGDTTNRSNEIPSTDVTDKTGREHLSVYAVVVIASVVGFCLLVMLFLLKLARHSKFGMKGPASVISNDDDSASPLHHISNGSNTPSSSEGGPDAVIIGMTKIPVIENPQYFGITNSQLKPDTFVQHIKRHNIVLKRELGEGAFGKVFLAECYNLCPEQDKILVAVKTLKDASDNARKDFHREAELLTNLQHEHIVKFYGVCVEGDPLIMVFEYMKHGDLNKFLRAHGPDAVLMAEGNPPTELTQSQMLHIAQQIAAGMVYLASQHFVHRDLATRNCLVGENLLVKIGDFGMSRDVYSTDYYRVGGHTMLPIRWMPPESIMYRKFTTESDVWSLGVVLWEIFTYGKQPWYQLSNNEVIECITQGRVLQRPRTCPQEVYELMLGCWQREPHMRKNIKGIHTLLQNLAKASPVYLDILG
T1 sequence (P04629 33-796): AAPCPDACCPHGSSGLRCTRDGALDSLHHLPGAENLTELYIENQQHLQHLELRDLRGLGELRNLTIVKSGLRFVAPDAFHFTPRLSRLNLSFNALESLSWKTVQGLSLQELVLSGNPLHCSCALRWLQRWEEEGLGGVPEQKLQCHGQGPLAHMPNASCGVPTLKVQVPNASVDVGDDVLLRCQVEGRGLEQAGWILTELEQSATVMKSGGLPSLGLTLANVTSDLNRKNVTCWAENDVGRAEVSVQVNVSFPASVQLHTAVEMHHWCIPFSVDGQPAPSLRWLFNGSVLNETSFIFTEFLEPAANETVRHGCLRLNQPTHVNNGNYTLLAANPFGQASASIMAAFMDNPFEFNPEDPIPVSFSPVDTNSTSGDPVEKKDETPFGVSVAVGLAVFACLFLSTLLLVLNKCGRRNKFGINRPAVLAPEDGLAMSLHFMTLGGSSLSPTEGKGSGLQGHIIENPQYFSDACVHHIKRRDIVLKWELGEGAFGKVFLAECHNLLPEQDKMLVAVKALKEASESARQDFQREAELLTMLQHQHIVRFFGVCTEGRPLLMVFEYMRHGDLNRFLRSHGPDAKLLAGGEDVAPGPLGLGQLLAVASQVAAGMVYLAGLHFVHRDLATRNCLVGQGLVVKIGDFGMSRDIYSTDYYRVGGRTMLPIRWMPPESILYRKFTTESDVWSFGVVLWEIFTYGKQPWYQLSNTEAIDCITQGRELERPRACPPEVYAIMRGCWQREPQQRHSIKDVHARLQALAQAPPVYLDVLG

Consider `CN1CCN(c2ccc(C(=O)Nc3n[nH]c4nc(N)c(Sc5cc(F)cc(F)c5)cc34)c(NC3CCOCC3)c2)CC1` [Example 14-11, N-(6-amino-5-(3,5-difluorophenylthio)-1H-pyrazolo[3,4-b]pyridin-3-yl)-4-(4-methylpiperazin-1-yl)-2-(tetrahydro-2H-pyran-4-ylamino)benzamide], for which the IC50 in data set [1] came out at 2.2 nM.
With `CN1CCN(c2ccc(C(=O)Nc3n[nH]c4ncc(Sc5cc(F)cc(F)c5)cc34)c(NC3CCOCC3)c2)CC1` [Example 30, N-(5-(3,5-difluorophenylthio)-1-H-pyrazolo[3,4-b]pyridine-3-yl)-4-(4-methylpiperazine-1-yl)-2-(tetrahydro-2H-pyran-4-ylamino)benzamide], in data set [1], the IC50 was found to be 36 nM. In addition, the adverse effects result in data set [2] (120 and 240 mg/kg) is “without any adverse effects”. For the same compound, in data set [2] (recorded at 120 and 240 mg/kg, lasts one week after the end of treatment), the tumor growth inhibition entry is “up to 96%”.
Regarding `CN1CCN(c2ccc(C(=O)Nc3n[nH]c4ncc(Cc5cc(F)cc(F)c5)cc34)c(NC3CCOCC3)c2)CC1` [Example 30-9, N-(5-(3,5-difluorobenzyl)-1H-pyrazolo[3,4-b]pyridin-3-yl)-4-(4-methylpiperazin-1-yl)-2-(tetrahydro-2H-pyran-4-ylamino)benzamidc], in data set [3], the “Enzymatic inhibition at 10 nM (%) TrkA” value is listed as 55%. In addition, in data set [4], the “Enzymatic inhibition at 10 nM (%) TrkB” value came to 98%.
For the compound `COC(=O)[C@@]1(O)C[C@H]2O[C@]1(C)n1c3ccccc3c3c4c(c5c6ccccc6n2c5c31)C(=O)NC4` [Example K252a, K252a], the IC50 in data set [5] was 74 nM. Further, the “pIC50 on TrkB” value in data set [5] (mean±SD) worked out at 7.16±0.18.
